In series [1] the test system is Aspergillus flavus CCM 8363. The series can be described thus: Antifungal microdilution broth (EUCAST). It counts as cell-based. As to conditions: Aspergillus flavus, read-out: MIC Aspergillus flavus.
Series [2] deals with Mycolicibacterium smegmatis DSM 43,465 (ATCC 607). Kind of series: Antimycobacterial microdilution (resazurin) vs M. smegmatis. It counts as cell-based. The settings on record: Middlebrook 7H9, resazurin, read-out: MIC M. smeg. (In general: Dilution methods test growth across graded concentrations, often in twofold steps.)
Series [3] has as its system Mycolicibacterium aurum DSM 43,999 (ATCC 23366). The series can be described thus: Antimycobacterial microdilution (resazurin) vs M. aurum. It counts as cell-based. The settings on record: Middlebrook 7H9, resazurin, read-out: MIC M. aurum.
Series [4] has as its system Staphylococcus epidermidis CCM 4418 (ATCC 12228). The series can be described thus: Antibacterial microdilution broth (EUCAST). It counts as cell-based. The settings on record: read-out: MIC Staphylococcus epidermidis.
Series [5] relates to Pseudomonas aeruginosa CCM 3955 (ATCC 27853). The series can be described thus: Antibacterial microdilution broth (EUCAST). It counts as cell-based. As to conditions: read-out: MIC Pseudomonas aeruginosa.
Series [6] relates to Mycobacterium kansasii DSM 44,162 (ATCC 12478). The series can be described thus: Antimycobacterial microdilution (resazurin) vs M. kansasii. It counts as cell-based. The settings on record: read-out: MIC M. kansasii.
For series [7], the system named is Aspergillus fumigatus ATCC 204305. Kind of series: Antifungal microdilution broth (EUCAST). In kind it is cell-based. As to conditions: Aspergillus fumigatus, read-out: MIC Aspergillus fumigatus.
The subject of the next series is HepG2 cell line. Kind of series: Cytotoxicity screening, CellTiter 96 assay. As to conditions: Homo sapiens, HepG2, 24 h, read-out: IC50 HepG2.
Series [8] relates to Lichtheimia corymbifera CCM 8077. Kind of series: Antifungal microdilution broth (EUCAST). It counts as cell-based. As to conditions: Lichtheimia corymbifera, read-out: MIC Lichtheimia corymbifera.
In series [9] the test system is Mycobacterium tuberculosis H37Rv CNCTC My 331/88 (ATCC 27294). The series can be described thus: Microplate Alamar Blue assay vs Mtb H37Rv. In kind it is cell-based. As to conditions: Mycobacterium tuberculosis, pH 6.6, MABA, Middlebrook 7H9 pH 6.6, recalculated from µg/mL; read-out: MIC Mtb H37Rv.
Series [10] deals with Candida krusei CCM 8271 (ATCC 6258). The series can be described thus: Antifungal microdilution broth (EUCAST). The settings on record: Pichia kudriavzevii, read-out: MIC Candida krusei. It counts as cell-based.
For series [11], the system named is Klebsiella pneumoniae CCM 4415 (ATCC 10031). Kind of series: Antibacterial microdilution broth (EUCAST). It counts as cell-based. As to conditions: Klebsiella pneumoniae, read-out: MIC Klebsiella pneumoniae.
The test system of series [12] is Trichophyton interdigitale CCM 8377 (ATCC 9533). Kind of series: Antifungal microdilution broth (EUCAST). As to conditions: Trichophyton interdigitale, read-out: MIC Trichophyton interdigitale. It counts as cell-based.
Series [13] relates to methicillin-resistant Staphylococcus aureus subsp. aureus (MRSA) CCM 4750 (ATCC 43300). Kind of series: microbe, parasite or virus in culture. It counts as cell-based. As to conditions: read-out: MIC Methicillin-resistant Staphylococcus aureus subsp. aureus.
Series [14] has as its system Candida parapsilosis CCM 8260 (ATCC 22019). The series can be described thus: Antifungal microdilution broth (EUCAST). As to conditions: Lodderomyces parapsilosis, read-out: MIC Candida parapsilosis. It counts as cell-based.
The test system of series [15] is Staphylococcus aureus subsp. aureus CCM 4223 (ATCC 29213). The series can be described thus: Antibacterial microdilution broth (EUCAST). It counts as cell-based. As to conditions: read-out: MIC Staphylococcus aureus subsp. aureus.
The test system of series [16] is Mycobacterium avium DSM 44,156 (ATCC 25291). The series can be described thus: Antimycobacterial microdilution (resazurin) vs M. avium. As to conditions: Middlebrook 7H9, resazurin, read-out: MIC M. avium. It counts as cell-based.
The test system of series [17] is Mycobacterium tuberculosis H37Ra ITM-M006710 (ATCC 9431). The series can be described thus: Antimycobacterial microdilution (resazurin) vs Mtb H37Ra. It counts as cell-based. As to conditions: Middlebrook 7H9, resazurin, recalculated from µg/mL, read-out: MIC Mtb H37Ra.
In series [18] the test system is Candida albicans CCM 8320 (ATCC 24433). Kind of series: Antifungal microdilution broth (EUCAST). The settings on record: Candida albicans, read-out: MIC Candida albicans. In kind it is cell-based.
For series [19], the system named is Escherichia coli CCM 3954 (ATCC 25922). The series can be described thus: Antibacterial microdilution broth (EUCAST). It counts as cell-based. As to conditions: Escherichia coli, read-out: MIC Escherichia coli.
The test system of series [20] is Enterococcus faecalis CCM 4224 (ATCC 29212). The series can be described thus: Antibacterial microdilution broth (EUCAST). In kind it is cell-based. As to conditions: read-out: MIC Enterococcus faecalis.
Series [21] has as its system Acinetobacter baumannii DSM 30007 (ATCC 19606). The series can be described thus: Antibacterial microdilution broth (EUCAST). In kind it is cell-based. The settings on record: read-out: MIC Acinetobacter baumannii.
Series [22] has as its system Candida tropicalis CCM 8264 (ATCC 750). The series can be described thus: Antifungal microdilution broth (EUCAST). The settings on record: read-out: MIC Candida tropicalis. It counts as cell-based.
The next series concerns Mtb laboratory ID MATI. In kind it is cell-based, Mycobacterium tuberculosis. As to conditions: for Susceptibility: CLSI breakpoints 2021.
The next series concerns Mtb laboratory ID IZAK. It counts as cell-based, Mycobacterium tuberculosis. The settings on record: for Susceptibility: CLSI breakpoints 2020.

Converted amounts (≈) assume the structure as drawn. Like-named read-outs stand apart in the source and are kept apart here.

For orientation: IC50 means the concentration that gives 50% inhibition. As usually defined, the melting point is the temperature, or range, at which the solid turns liquid. Compound `O=C(Nc1ccc2c(c1)B(O)OC2)c1ccc2ccccc2n1` [Compound 19, N-(1-hydroxy-1,3-dihydrobenzo[c][1,2]oxaborol-6-yl)quinoline-2-carboxamide] came in with a melting point of 201 to 203.1 °C. Further, in series [1] (CCM8363, 24 h), the MIC is > 125 µM. The MIC in series [1] (CCM8363, 48 h) is > 125 µM. The MIC in series [2] amounted to 25.7 µM (≈ 7.81 µg/mL). Besides, the MIC in series [3] came out at 25.7 µM (≈ 7.81 µg/mL). Further, the MIC in [4] (24 h) is > 125 µM. Further, in series [4] (48 h), the MIC is > 125 µM. In series [5] (24 h), the MIC is > 125 µM. In [5] (48 h), the MIC was > 125 µM. Further, the MIC in [6] worked out at 206 µM (≈ 62.5 µg/mL). The MIC in series [7] (ATCC204305, 24 h) was > 125 µM. In addition, the MIC in [7] (ATCC204305, 48 h) is > 125 µM. The half-maximal inhibitory concentration (IC50) in the series on HepG2 cell line was 467 µM. The MIC in [8] (CCM8077, 24 h) is > 125 µM. Also, the MIC in series [8] (CCM8077, 48 h) was > 125 µM. The MIC in [9] is 82.2 µM (≈ 25 µg/mL). For the same compound, the MIC in series [10] (24 h) is > 125 µM. Further, the MIC in series [10] (48 h) was > 125 µM. Further, the MIC in series [11] (24 h) is > 125 µM. In addition, the MIC in series [11] (48 h) is > 125 µM. Further, the MIC in series [12] (72 h) is > 125 µM. Moreover, the MIC in series [12] (120 h) was > 125 µM. Besides, the MIC in series [13] (24 h) is > 125 µM. Further, the MIC in series [13] (48 h) was > 125 µM. Further, the MIC in series [14] (24 h) was > 125 µM. The MIC in [14] (48 h) was > 125 µM. Besides, the MIC in [15] (24 h) came out at 125 µM (≈ 38 µg/mL). Besides, in series [15] (48 h), the MIC was determined as 125 µM (≈ 38 µg/mL). Besides, in [16], the MIC is 25.68 µM (≈ 7.81 µg/mL). The MIC in series [16] (Mycobacterium avium) came to 25.6 µM (≈ 7.78 µg/mL). In addition, in [17], the MIC is 206 µM (≈ 62.5 µg/mL). Besides, the MIC in series [18] (24 h) was > 125 µM. For the same compound, in series [18] (48 h), the MIC is > 125 µM. Further, the MIC in series [19] (24 h) was > 125 µM. In addition, the MIC in series [19] (48 h) is > 125 µM. In series [20] (24 h), the MIC was > 125 µM. For the same compound, the MIC in series [20] (48 h) was > 125 µM. Further, the MIC in series [21] (24 h) was > 125 µM. Also, the MIC in [21] (48 h) is > 125 µM. The MIC in series [22] (24 h) was > 125 µM. Besides, the MIC in [22] (48 h) was > 125 µM.

With `NC(=O)c1cnccn1` [PZA, pyrazinamide], the Concentration in the series with Mtb laboratory ID MATI (strain MATI, CLSI 2021) is on record as >1039.70 µM; in the series with Mtb laboratory ID IZAK (strain IZAK, CLSI 2020), >129.96 µM. Further, the Susceptibility result in the series on Mtb laboratory ID MATI (strain MATI) and in the series with Mtb laboratory ID IZAK (strain IZAK) was “resistant” each time.

As for `CO[C@H]1/C=C/O[C@@]2(C)Oc3c(C)c(O)c4c(O)c(c(/C=N/N5CCN(C)CC5)c(O)c4c3C2=O)NC(=O)/C(C)=C\C=C\[C@H](C)[C@H](O)[C@@H](C)[C@@H](O)[C@@H](C)[C@H](OC(C)=O)[C@@H]1C` [RIF, rifampicin, reference compound], the MIC is 15.2 µM (≈ 12.5 µg/mL) in series [2]; 0.47 µM (≈ 0.387 µg/mL) in series [3]; 0.06 µM (≈ 0.0494 µg/mL) in series [6] (Middlebrook 7H9, resazurin); 0.08 µM (≈ 0.0658 µg/mL) in series [16] (Mycobacterium avium); 0.00759 µM (≈ 0.00625 µg/mL) in series [17]. Further, the Concentration in the series with Mtb laboratory ID MATI and in the series with Mtb laboratory ID IZAK was >9.72 µM each time. Further, the Susceptibility entry in the series on Mtb laboratory ID MATI (strain MATI) and in the series with Mtb laboratory ID IZAK (strain IZAK) was “resistant” each time.

For the compound `[H]/N=C(/N)N[C@H]1[C@H](O)[C@@H](O)[C@H](O[C@@H]2O[C@@H](C)[C@](O)(C=O)[C@H]2O[C@@H]2O[C@@H](CO)[C@H](O)[C@@H](O)[C@@H]2NC)[C@@H](N/C(N)=N\[H])[C@@H]1O` [STM, streptomycin], the Concentration is recorded as >27.51 µM in the series with Mtb laboratory ID MATI (strain MATI, CLSI 2021) and 6.88 µM with Mtb laboratory ID IZAK (strain IZAK, CLSI 2020). Also, the Susceptibility result in the series on Mtb laboratory ID MATI (strain MATI) and in the series on Mtb laboratory ID IZAK (strain IZAK) was “resistant” each time.

The record behind these values is publication PMC9917560, “Design, Synthesis and Antimicrobial Evaluation of New N-(1-Hydroxy-1,3-dihydrobenzo[c][1,2]oxaborol-6-yl)(hetero)aryl-2-carboxamides as Potential Inhibitors of Mycobacterial Leucyl-tRNA Synthetase” (International Journal of Molecular Sciences, 2023).
